The record followed here is ChEMBL document CHEMBL1201862, “PubChem BioAssay data set” (2004).

The target in assay [1] is T1, Polyadenylate-binding protein 1 (Homo sapiens, UniProt P11940). Nature of the assay: MLLE domain peptide-binding blockers, IC50 – biochemical, fluorescence polarization, FITC-PAM2 peptide, dose response (AID 602259). The conditions noted are these: read-out: IC50_Mean. The class given is functional. (Fluorescence polarisation rises when a labelled molecule tumbles more slowly, as on binding a larger partner.)
T1 sequence (P11940 whole entry, the tested form may be a part): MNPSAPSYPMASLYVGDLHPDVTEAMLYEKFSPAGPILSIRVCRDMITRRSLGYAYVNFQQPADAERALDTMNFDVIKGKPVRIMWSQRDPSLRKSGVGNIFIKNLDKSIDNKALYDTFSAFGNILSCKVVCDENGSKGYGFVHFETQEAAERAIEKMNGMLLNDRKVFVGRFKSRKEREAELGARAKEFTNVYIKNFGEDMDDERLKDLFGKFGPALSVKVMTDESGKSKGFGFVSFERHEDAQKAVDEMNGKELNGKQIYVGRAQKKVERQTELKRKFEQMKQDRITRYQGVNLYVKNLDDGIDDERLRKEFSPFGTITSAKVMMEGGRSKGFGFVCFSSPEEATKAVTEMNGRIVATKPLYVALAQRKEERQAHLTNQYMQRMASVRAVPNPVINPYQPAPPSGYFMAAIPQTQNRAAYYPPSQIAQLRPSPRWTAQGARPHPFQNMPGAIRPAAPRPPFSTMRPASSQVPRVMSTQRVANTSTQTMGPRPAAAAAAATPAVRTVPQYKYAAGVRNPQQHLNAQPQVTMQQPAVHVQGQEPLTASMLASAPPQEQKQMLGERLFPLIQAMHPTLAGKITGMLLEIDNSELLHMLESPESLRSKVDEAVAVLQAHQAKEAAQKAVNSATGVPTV

Assay [2] addresses T1, Polyadenylate-binding protein 1. The assay is described as follows: MLLE binding blockers, Cy5 peptide tracer – biochemical, fluorescence polarization, Cy5-PAM2 peptide, secondary, miRNA deadenylation inhibitor project, dose response (AID 602260). In kind it is functional. Conditions: read-out: IC50_Mean.
The nature of assay [3]: Luminescence Cell-Based Dose Confirmation HTS to Identify Activators of 5'UTR Stem-Loop Driven Alpha-Synuclein mRNA Translation in H4 Neuroglioblastoma Cells. [Related pubchem assays: 1829 (Project Summary), 1814 (Primary HTS)]. In kind it is functional.
In another assay the test system is H4. Nature of the assay: Luminescence Cell-Based Dose Response HTS to Identify Activators of 5'UTR Stem-Loop Driven Prion Protein mRNA Translation in H4 Neuroglioblastoma Cells. [Related pubchem assays: 1829 (Project Summary), 1814 (Primary HTS)]. In kind it is functional. The conditions noted are these: Homo sapiens.
A short description of assay [4]: Luminescence Cell-Based Dose Response HTS to Identify Activators of Luciferase Translation or Activity in H4 […] Cells. [Related pubchem assays: 1829 (Project Summary), 1814 (Primary HTS)]. The class given is functional.
Assay [5] is described as follows: viability of HCT116 lacking mutant beta-catenin – cell-based, human colon tumor, dose response (AID 1045).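 Also: HCT116 colon tumor cells with beta catenin knocked out; cells exposed to compound for 60 hours.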 The class given is functional.
A short description of assay [6]: viability of PTEN-deleted HCT116 cells – cell-based, HCT116 PTEN knockout, dose response (AID 1047).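 Also: HCT116 colon tumor cells with PTEN knocked out; cells exposed to compound for 60 hours before readout; potency for loss of cell viability measured by luminescence.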 The class given is functional.
A further assay addresses T2, Streptokinase A (Streptococcus pyogenes serotype M1, UniProt P10520).
T2 sequence (P10520 whole entry): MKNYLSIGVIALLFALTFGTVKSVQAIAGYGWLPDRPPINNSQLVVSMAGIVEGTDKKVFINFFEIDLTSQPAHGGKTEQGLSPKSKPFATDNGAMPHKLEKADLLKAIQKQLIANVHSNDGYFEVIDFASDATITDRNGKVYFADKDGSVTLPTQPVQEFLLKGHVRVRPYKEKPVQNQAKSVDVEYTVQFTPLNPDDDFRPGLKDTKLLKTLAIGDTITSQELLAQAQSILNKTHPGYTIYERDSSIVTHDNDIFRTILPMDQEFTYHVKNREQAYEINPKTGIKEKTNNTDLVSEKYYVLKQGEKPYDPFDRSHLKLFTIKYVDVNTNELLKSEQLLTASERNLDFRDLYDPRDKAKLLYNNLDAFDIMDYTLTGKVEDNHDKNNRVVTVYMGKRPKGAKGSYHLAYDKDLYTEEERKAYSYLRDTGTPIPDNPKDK
The assay is described as follows: viability-normalized secreted streptokinase activity reduction – plasminogen activation absorbance, OD405, dose response (AID 1914).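 Also: secreted streptokinase activity via plasminogen activation per viability signal from cell pellet.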 The class given is functional, Streptococcus pyogenes M1 GAS.

The next assay has as its system Streptococcus. Nature of the assay: GAS UMAA2166 growth inhibition – luminescence, BacTiterGlo, counter-screen for streptokinase expression inhibitor project, dose response (AID 1915).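 Also: potency for reduction of bacterial viability or growth.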 In kind it is functional, organism-based. Background: Counterscreens check selectivity or assay interference.
In assay [7] the test system is Streptococcus sp. 'group A'. Nature of the assay: Streptococcus pyogenes SK(-)GAS viability under kanamycin – luminescence, BacTiterGlo, confirmation, counter-screen for streptokinase expression inhibitor project, dose response (AID 1900). In kind it is functional, organism-based.
In a further assay the target is T3, Cytochrome P450 1A2 (Homo sapiens, UniProt P05177).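 Also: PubChem cytochrome P450 panel assay, CYP1A2 panel member.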
T3 sequence (P05177 whole entry): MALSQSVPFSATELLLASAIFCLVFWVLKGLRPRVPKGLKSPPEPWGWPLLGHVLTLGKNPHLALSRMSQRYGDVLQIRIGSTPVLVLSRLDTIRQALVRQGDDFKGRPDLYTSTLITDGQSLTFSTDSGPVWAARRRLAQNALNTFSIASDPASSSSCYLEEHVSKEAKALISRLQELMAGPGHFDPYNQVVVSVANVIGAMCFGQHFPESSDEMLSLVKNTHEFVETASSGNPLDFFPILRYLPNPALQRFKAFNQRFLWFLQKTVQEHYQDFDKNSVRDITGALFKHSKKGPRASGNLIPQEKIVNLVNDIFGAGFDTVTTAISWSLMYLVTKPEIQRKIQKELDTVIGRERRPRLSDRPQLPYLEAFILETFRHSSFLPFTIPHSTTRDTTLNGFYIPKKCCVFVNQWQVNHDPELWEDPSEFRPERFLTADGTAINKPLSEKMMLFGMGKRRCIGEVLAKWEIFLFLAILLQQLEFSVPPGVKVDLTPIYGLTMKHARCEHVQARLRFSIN

A further assay addresses Cytochrome P450 3A4 (Homo sapiens, UniProt P08684).
Another assay concerns the target Cytochrome P450 2C9 (Homo sapiens, UniProt P11712).
The target in assay [8] is T4, Corticotropin-releasing factor receptor 2/Corticotropin-releasing factor-binding protein (Homo sapiens, UniProt P24387+Q13324).
T4 sequence (Q13324 whole entry): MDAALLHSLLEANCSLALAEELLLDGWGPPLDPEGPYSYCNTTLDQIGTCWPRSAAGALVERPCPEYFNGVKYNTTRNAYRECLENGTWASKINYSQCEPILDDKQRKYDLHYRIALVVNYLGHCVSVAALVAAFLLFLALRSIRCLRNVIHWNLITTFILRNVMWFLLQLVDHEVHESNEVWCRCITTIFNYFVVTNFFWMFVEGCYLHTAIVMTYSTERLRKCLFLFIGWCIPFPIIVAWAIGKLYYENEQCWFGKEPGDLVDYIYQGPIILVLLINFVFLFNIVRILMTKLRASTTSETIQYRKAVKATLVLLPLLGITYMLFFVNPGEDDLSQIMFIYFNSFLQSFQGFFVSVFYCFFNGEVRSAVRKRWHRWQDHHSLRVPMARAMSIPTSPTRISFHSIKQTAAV
T4 sequence (P24387 whole entry): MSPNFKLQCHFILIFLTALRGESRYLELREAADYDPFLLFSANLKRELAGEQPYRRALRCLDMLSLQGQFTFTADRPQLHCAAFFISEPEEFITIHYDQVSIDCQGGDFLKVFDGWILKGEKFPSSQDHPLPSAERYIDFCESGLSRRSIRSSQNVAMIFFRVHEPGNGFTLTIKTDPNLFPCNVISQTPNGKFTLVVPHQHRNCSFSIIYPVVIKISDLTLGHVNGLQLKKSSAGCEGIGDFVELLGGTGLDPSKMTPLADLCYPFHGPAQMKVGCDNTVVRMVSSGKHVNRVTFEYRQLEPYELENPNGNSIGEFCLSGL
Nature of the assay: Dose Response confirmation of uHTS hits for small molecule antagonists of the CRF-binding protein and CRF-R2 receptor complex. Conditions: read-out: IC50_Mean. The class given is functional.

Assay [9] deals with T4, Corticotropin-releasing factor receptor 2/Corticotropin-releasing factor-binding protein. Nature of the assay: activators of CRF receptor 2 with binding protein – uHTS hits, confirmation (AID 602473). Conditions: read-out: EC50_Mean. In kind it is functional.

Calls of active or inactive are those of the source. Some results are limits rather than exact numbers.

Sequence of Cytochrome P450 3A4 (P08684 whole entry): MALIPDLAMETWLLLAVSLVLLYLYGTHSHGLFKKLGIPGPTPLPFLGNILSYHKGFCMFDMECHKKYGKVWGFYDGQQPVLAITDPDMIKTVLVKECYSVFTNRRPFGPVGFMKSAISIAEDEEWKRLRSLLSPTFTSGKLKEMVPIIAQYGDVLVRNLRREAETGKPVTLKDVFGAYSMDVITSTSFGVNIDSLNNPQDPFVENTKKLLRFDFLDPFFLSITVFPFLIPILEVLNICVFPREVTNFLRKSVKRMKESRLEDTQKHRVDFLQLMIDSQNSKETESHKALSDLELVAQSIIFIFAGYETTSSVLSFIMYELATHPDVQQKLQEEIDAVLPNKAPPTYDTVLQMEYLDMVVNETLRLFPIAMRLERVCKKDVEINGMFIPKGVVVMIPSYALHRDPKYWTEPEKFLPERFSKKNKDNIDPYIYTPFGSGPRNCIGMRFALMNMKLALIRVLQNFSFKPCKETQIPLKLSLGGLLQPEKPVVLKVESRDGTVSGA
Sequence of Cytochrome P450 2C9 (P11712 whole entry): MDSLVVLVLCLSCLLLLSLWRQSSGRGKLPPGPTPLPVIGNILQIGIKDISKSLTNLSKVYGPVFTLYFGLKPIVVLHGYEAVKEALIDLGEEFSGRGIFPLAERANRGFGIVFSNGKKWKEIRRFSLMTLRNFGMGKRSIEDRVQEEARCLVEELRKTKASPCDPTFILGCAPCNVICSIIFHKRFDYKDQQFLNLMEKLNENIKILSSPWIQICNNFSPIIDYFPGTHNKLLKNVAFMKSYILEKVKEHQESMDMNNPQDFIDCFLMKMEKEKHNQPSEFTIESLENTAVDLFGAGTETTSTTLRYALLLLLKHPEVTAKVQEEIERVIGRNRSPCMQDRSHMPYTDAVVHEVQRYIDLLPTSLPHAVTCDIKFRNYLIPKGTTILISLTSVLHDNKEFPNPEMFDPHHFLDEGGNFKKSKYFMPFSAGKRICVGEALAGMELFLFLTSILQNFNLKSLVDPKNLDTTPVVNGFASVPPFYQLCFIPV

In the case of `CC(=O)c1cccc(S(=O)(=O)N2CCN(CCOc3ccccc3)CC2)c1`, the IC50 in assay [1] and in [2] was > 66 µM (inactive) each time.

As to `O=C(OCc1nc2ccccc2s1)C1CCN(C2=NS(=O)(=O)c3ccccc32)CC1`, the results for the EC50 (in [3]; in the assay on H4; in [4]) were 24 µM (active), 21.9 µM (active) and 24.8 µM (active), respectively.

`CCN(CC)CCNC(=O)c1ccc2c(=O)n(C3CCCC3)c(=S)[nH]c2c1`: the EC50 in [5] was 14.1 µM (active); in [6], 17.2 µM (active).

In the case of `COc1ccc(S(=O)(=O)NCC2CCCN(Cc3ccc(OC)cc3F)C2)cc1` (stereo not given), the EC50 at Streptokinase A is > 150 µM (not active); in the assay with Streptococcus, > 150 µM (not active); in assay [7], 114 µM (active).

`COc1c(Cl)cnn(-c2ccc(C)cc2)c1=O`: the EC50 in assay [5] is 11.5 µM (active); in [6], 15.5 µM (active).

Turning to `Cn1cc([N+](=O)[O-])c(C(=O)Nc2ccc(Br)cn2)n1`, the EC50 in assay [5] was 4.91 µM (active); in assay [6], 5.55 µM (active).

Take `O=C(CCCc1ccccc1)N1CCN(C2CCCCC2)CC1`: the values for the EC50 (in [3]; with H4; in assay [4]) were 13.5 µM (active), 42.8 µM (active) and 13.7 µM (active), respectively.

Take `O=C(NC(=S)Nc1ccccc1N1CCCCC1)c1ccco1`: the IC50 in assay [1] and in assay [2] was > 66 µM (inactive) in each case.

With `Cc1cccc(-c2oc3ccccc3c2-c2ccc3c(c2)OCO3)c1`, the results for the EC50 (at Streptokinase A; in the assay on Streptococcus; in [7]) were 5.16 µM (active), > 150 µM (not active) and 2.25 µM (active), respectively.

As for `Cc1cccc2nc(CSCc3ccco3)cn12`, the IC50 in [1] and in assay [2] was > 66 µM (inactive) in each case.

As for `CC(C)Sc1nc(NCc2ccco2)c2c3c(sc2n1)COC(C)(C)C3`, the EC50 in assay [3] was 14.6 µM (active); in the assay on H4 it was 8.39 µM (active); in [4] it was 17.2 µM (active).

For the molecule `CCCn1c(NC(=O)c2cccc(C)c2C)nc2ccccc21`, the EC50 at Streptokinase A was > 150 µM (not active); with Streptococcus, > 150 µM (not active); in assay [7] it was 7.43 µM (active).

Take `CCc1noc(C)c1C(=O)OCC(=O)NC(=O)c1ccccc1`: the EC50 (on Streptokinase A; in the assay with Streptococcus; in [7]) was > 150 µM (not active) in each case.

For the molecule `N#Cc1nc(-c2ccc(OCc3ccccc3Cl)cc2)oc1NCCCn1ccnc1`, the EC50 is 16.6 µM (active) on Streptokinase A, > 150 µM (not active) in the assay on Streptococcus and 4.38 µM (active) in [7].

Turning to `COc1ccc(Cn2c(-c3ccco3)nc3oc4ccccc4c(=O)c3c2=O)cc1`, the EC50 was > 150 µM (not active) on Streptokinase A, 86.5 µM (active) with Streptococcus and 12.1 µM (active) in [7].

With `COc1ccc(C2=NOC(CNC(N)=S)C2)cc1` (stereo not given), the EC50 on Streptokinase A is on record as > 150 µM (not active).

Regarding `CCCC(=O)NC(Nc1cc(C(F)(F)F)ccc1Cl)C(Cl)(Cl)Cl` (stereo not given), the EC50 in assay [5] is 33.6 µM (active); in assay [6] it was 25.5 µM (active).

Consider `COc1ccc(C(C)=O)cc1COc1cc(C)c(Cl)c(C)c1`, for which the EC50 (at Streptokinase A; in the assay on Streptococcus; in assay [7]) was > 150 µM (not active) in each case.

As for `Cc1ccc(S(=O)(=O)CNC(=S)c2ccc3ccccc3c2)cc1`, on Streptokinase A, the EC50 is reported as > 150 µM (not active).

Regarding `COC(=O)c1cc(-c2ccc(OC)cc2F)nc2nc(SC)nc(O)c12`, the EC50 on Streptokinase A is > 150 µM (not active); with Streptococcus, 23.3 µM (active); in assay [7], 8.08 µM (active).

With `CCOc1ccccc1NC(=O)CSc1nnc(-c2cccnc2)o1`, the IC50 in [1] and in [2] was > 66 µM (inactive) in each case.

Take `COc1c(F)c(F)c(-c2csc(N)n2)c(F)c1F`: the IC50 in assay [1] and in assay [2] was > 66 µM (inactive) throughout.

For orientation: AC50 means the concentration at which the activity in the assay is half-maximal. For `CCOC(=O)N1CCN(C(=O)CSCc2nc(-c3ccccc3F)oc2C)CC1`, the AC50 was 12.6 µM (inconclusive) on Cytochrome P450 1A2, 25.1 µM (inconclusive) at Cytochrome P450 3A4 and 14.1 µM (inconclusive) on Cytochrome P450 2C9. In addition, the IC50 in assay [1] and in assay [2] was > 66 µM (inactive) in each case.

In the case of `CCOc1ccc(C(=O)c2cccs2)cc1`, in assay [8], the IC50 is > 47.1 µM (inactive). Further, the EC50 in assay [9] is > 53 µM (inactive); in assay [3] it was 55 µM (active); in the assay with H4 it was 11.4 µM (active); in assay [4] it was 13.5 µM (active).

Consider `O=C1CSC(=S)N1c1cccnc1`, for which the IC50 in assay [1] and in [2] was > 66 µM (inactive) throughout.

For the molecule `CCOc1ccc(CN2CCN(CC(O)Cn3c4ccccc4c4ccccc43)CC2)cc1` (stereo not given), the EC50 was 9.01 µM (active) in assay [5] and 9.94 µM (active) in [6].

Consider `COc1ccc2c(c1OC)C(=O)N1C2SC[C@H]1C(=O)NC1CCCC1` (stereo not given in full), for which the IC50 in assay [1] and in [2] was > 66 µM (inactive) in each case.

On to `O=C(NC(=S)Nc1cccnc1)c1cccc(Cl)c1`, for which the IC50 in assay [1] and in assay [2] was > 66 µM (inactive) each time.

For the molecule `CC1=NC2=C(C(=O)CCC2)C(c2cc3c(cc2Br)OCO3)/C1=C(\O)OCCOC(C)C` (stereo not given), the IC50 in assay [1] and in assay [2] was > 66 µM (inactive) in each case.

In the case of `O=C1c2ccccc2C2=Nc3ccccc3SC(c3ccccc3F)C12` (stereo not given), the EC50 at Streptokinase A was 4.91 µM (active); in the assay with Streptococcus it was 12.7 µM (active); in assay [7], 8.24 µM (active). The AC50 at Cytochrome P450 3A4 is 0.355 µM (inconclusive).

With `CS(=O)(=O)c1ccc([C@@H](O)[C@@H](CO)NC(=O)C(Cl)Cl)cc1` [THIAMPHENICOL], the EC50 on Streptokinase A is 4.02 µM (active); in the assay with Streptococcus, 4.55 µM (active); in [7], 1.89 µM (active).
